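Growth conditions: 96-well plates. Treatment: test compound, 48 hours, 5 concentrations. Analysis: linear interpolation between bracketing concentrations; unreached endpoints set to highest concentration. TGI denotes the concentration required for complete inhibition of growth.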
Assays:
Experiment in all cases: NCI tumour cell line growth inhibition, 48 h
[1] = tested on: CAKI-1 renal
[2] = tested on: COLO 205 colon
[3] = tested on: SNB-78 CNS
[4] = tested on: SK-MEL-5 melanoma
[5] = tested on: HOP-62 NSCLC
[6] = tested on: KM12 colon
[7] = tested on: A498 renal
[8] = tested on: MOLT-4 leukemia
[9] = tested on: SK-MEL-2 melanoma
[10] = tested on: HOP-18 NSCLC
[11] = tested on: DLD-1 colon
[12] = tested on: M19-MEL melanoma
[13] = tested on: RXF 393 renal
[14] = tested on: OVCAR-8 ovarian
[15] = tested on: SF-539 CNS
[16] = tested on: HCC-2998 colon
[17] = tested on: HCT-116 colon
[18] = tested on: HOP-92 NSCLC
[19] = tested on: OVCAR-3 ovarian
[20] = tested on: DMS 273 small cell lung
[21] = tested on: LOX IMVI melanoma
[22] = tested on: NCI-H460 lung
[23] = tested on: SF-295 CNS
[24] = tested on: NCI-H226 lung
[25] = tested on: CCRF-CEM leukemia
[26] = tested on: HL-60(TB) leukemia
[27] = tested on: SNB-19 CNS
[28] = tested on: MALME-3M melanoma
[29] = tested on: M14 melanoma
[30] = tested on: IGROV1 ovarian
[31] = tested on: DMS 114 small cell lung
[32] = tested on: RPMI-8226 leukemia
[33] = tested on: UACC-257 melanoma
[34] = tested on: OVCAR-4 ovarian
[35] = tested on: SK-MEL-28 melanoma
[36] = tested on: K-562 leukemia
[37] = tested on: OVCAR-5 ovarian
[38] = tested on: SW-620 colon
[39] = tested on: RXF-631 renal
[40] = tested on: UO-31 renal
[41] = tested on: HT29 colon
[42] = tested on: SNB-75 CNS
[43] = tested on: ACHN renal
[44] = tested on: HCT-15 colon
[45] = tested on: SK-OV-3 ovarian
[46] = tested on: 786-0 renal
[47] = tested on: SF-268 CNS
[48] = tested on: UACC-62 melanoma
[49] = tested on: EKVX NSCLC
[50] = tested on: NCI-H23 lung
[51] = tested on: TK-10 renal
[52] = tested on: KM20L2 colon
[53] = tested on: U251 CNS
[54] = tested on: LXFL 529 NSCLC
[55] = tested on: SN12C renal
[56] = tested on: A549 NSCLC
[57] = tested on: XF 498 CNS
[58] = tested on: NCI-H522 lung
[59] = tested on: P388/ADR leukemia
[60] = tested on: MCF7 breast
[61] = tested on: SN12K1 renal
[62] = tested on: P388 leukemia
[63] = tested on: NCI/ADR-RES ovarian
[64] = tested on: SR leukemia

Work on COc1ccc(OC)c(NC(=O)C(=O)C(C(C)=O)c2nc3ccc(Cl)cc3[nH]c2=O)c1 (configuration not stated) yielded a TGI [1] of over 50 µM, a TGI [2] of over 50 µM and a TGI [3] of over 50 µM. It also gave a TGI [4] of over 50 µM, a TGI [5] of over 50 µM and a TGI [6] of over 50 µM. The TGI [7] was over 50 µM, the TGI [8] was over 50 µM and the TGI [9] was over 50 µM. For the same compound, the TGI [10] was over 50 µM, the TGI [11] was over 50 µM and the TGI [12] was over 50 µM. For the same compound, the TGI [13] was over 50 µM, the TGI [14] was over 50 µM and the TGI [15] was over 50 µM. It also gave a TGI [16] of over 50 µM, a TGI [17] of over 50 µM and a TGI [18] of over 50 µM. The TGI [19] was over 50 µM, the TGI [20] was over 50 µM and the TGI [21] was over 50 µM. It also gave a TGI [22] of over 50 µM, a TGI [23] of over 50 µM and a TGI [24] of over 50 µM. For the same compound, the TGI [25] was over 5 µM, the TGI [26] was over 50 µM and the TGI [27] was over 50 µM. For the same compound, the TGI [28] was over 50 µM, the TGI [29] was over 50 µM and the TGI [30] was over 50 µM. The TGI [31] was over 50 µM, the TGI [32] was over 50 µM and the TGI [33] was over 50 µM. It also gave a TGI [34] of over 50 µM, a TGI [35] of over 50 µM and a TGI [36] of over 50 µM. For the same compound, the TGI [37] was over 50 µM, the TGI [38] was over 50 µM and the TGI [39] was over 50 µM. The TGI [40] was over 50 µM, the TGI [41] was over 50 µM and the TGI [42] was over 50 µM. It also gave a TGI [43] of over 50 µM, a TGI [44] of over 50 µM and a TGI [45] of over 50 µM. It also gave a TGI [46] of over 50 µM, a TGI [47] of over 50 µM and a TGI [48] of over 50 µM. The TGI [49] was over 50 µM, the TGI [50] was over 50 µM and the TGI [51] was over 50 µM. The TGI [52] was over 50 µM, the TGI [53] was over 50 µM and the TGI [54] was over 50 µM. The TGI [55] was over 50 µM, the TGI [56] was over 50 µM and the TGI [57] was over 50 µM.

With CC1=C(O)C(=O)[C@@H]2O[C@@H]2C1=O the TGI [58] was 4.56 µM, the TGI [1] was 16.7 µM and the TGI [2] was 16 µM. It also gave a TGI [59] of 32.9 µM, a TGI [3] of 40.9 µM and a TGI [4] of 30.1 µM. It also gave a TGI [5] of 100 µM, a TGI [6] of 27.3 µM and a TGI [7] of 17.1 µM. The TGI [8] was 10.9 µM, the TGI [9] was 38.1 µM and the TGI [10] was 30.6 µM. The TGI [11] was 21.7 µM, the TGI [12] was 28.9 µM and the TGI [60] was 31.7 µM. For the same compound, the TGI [13] was 7.88 µM, the TGI [14] was 24.7 µM and the TGI [15] was 41.9 µM. It also gave a TGI [16] of 35.6 µM, a TGI [17] of 27.8 µM and a TGI [18] of 17.1 µM. It also gave a TGI [19] of 17.4 µM, a TGI [20] of 62.3 µM and a TGI [21] of 26.8 µM. For the same compound, the TGI [22] was 47.4 µM, the TGI [23] was 72.1 µM and the TGI [61] was 32.3 µM. The TGI [24] was 37 µM, the TGI [25] was 8.09 µM and the TGI [26] was 8.59 µM. For the same compound, the TGI [27] was 115 µM, the TGI [28] was 17.2 µM and the TGI [30] was 48.4 µM. For the same compound, the TGI [31] was 28.4 µM, the TGI [32] was 16.5 µM and the TGI [33] was 23.9 µM. It also gave a TGI [34] of 28.5 µM, a TGI [35] of 16.7 µM and a TGI [36] of 42.7 µM. For the same compound, the TGI [37] was 33.9 µM, the TGI [38] was 13.4 µM and the TGI [40] was 54.1 µM. The TGI [41] was 36.6 µM, the TGI [62] was 4.99 µM and the TGI [42] was 31.9 µM. The TGI [44] was 22 µM, the TGI [45] was 107 µM and the TGI [47] was 30.5 µM. For the same compound, the TGI [48] was 21.7 µM, the TGI [49] was 33.9 µM and the TGI [50] was 35.8 µM. It also gave a TGI [52] of 49.4 µM, a TGI [53] of 46.3 µM and a TGI [55] of 52.4 µM. The TGI [56] was 99 µM, the TGI [57] was 23.3 µM and the TGI [63] was 44.9 µM.

COC1C(CN[N+](=O)CC2OC3OC(C)(C)OC3C2OC)OC2OC(C)(C)OC21 (configuration not stated) showed a TGI [1] of over 100 µM, a TGI [2] of over 100 µM and a TGI [3] of over 100 µM. For the same compound, the TGI [4] was over 100 µM, the TGI [5] was over 100 µM and the TGI [6] was over 100 µM. For the same compound, the TGI [7] was over 100 µM, the TGI [8] was over 100 µM and the TGI [9] was over 100 µM. For the same compound, the TGI [10] was over 100 µM, the TGI [11] was over 100 µM and the TGI [12] was over 100 µM. It also gave a TGI [13] of over 100 µM, a TGI [14] of over 100 µM and a TGI [15] of over 100 µM. For the same compound, the TGI [16] was over 100 µM, the TGI [17] was over 100 µM and the TGI [18] was over 100 µM. It also gave a TGI [19] of over 100 µM, a TGI [20] of over 100 µM and a TGI [21] of over 100 µM. The TGI [22] was over 100 µM, the TGI [23] was over 100 µM and the TGI [24] was over 100 µM. The TGI [25] was over 100 µM, the TGI [26] was over 100 µM and the TGI [27] was over 100 µM. For the same compound, the TGI [28] was over 100 µM, the TGI [29] was over 100 µM and the TGI [30] was over 100 µM. It also gave a TGI [31] of over 100 µM, a TGI [33] of over 100 µM and a TGI [34] of over 100 µM. For the same compound, the TGI [35] was over 100 µM, the TGI [37] was over 100 µM and the TGI [38] was over 100 µM. It also gave a TGI [39] of over 100 µM, a TGI [40] of over 100 µM and a TGI [41] of over 100 µM. It also gave a TGI [42] of over 100 µM, a TGI [43] of over 100 µM and a TGI [44] of over 100 µM. It also gave a TGI [45] of over 100 µM, a TGI [46] of over 100 µM and a TGI [47] of over 100 µM. It also gave a TGI [48] of over 100 µM, a TGI [49] of over 100 µM and a TGI [50] of over 100 µM. The TGI [51] was over 100 µM, the TGI [53] was over 100 µM and the TGI [55] was over 100 µM. The TGI [56] was over 100 µM.

COc1ccc2[nH]c3c(C)c4c(c(C)c3c2c1)CN(C)CC4 gave a TGI [58] of 33.4 µM, a TGI [1] of 34.1 µM and a TGI [2] of 31.2 µM. It also gave a TGI [3] of 80.6 µM, a TGI [4] of 32 µM and a TGI [5] of 32.4 µM. It also gave a TGI [6] of 27.1 µM, a TGI [7] of 32.2 µM and a TGI [8] of 74.1 µM. It also gave a TGI [64] of 83.8 µM, a TGI [9] of 31.5 µM and a TGI [10] of 31.3 µM. The TGI [11] was 93.7 µM, the TGI [12] was 31.6 µM and the TGI [13] was 36.2 µM. The TGI [14] was 25.8 µM, the TGI [15] was 29.8 µM and the TGI [16] was 31.4 µM. For the same compound, the TGI [17] was 11.8 µM, the TGI [18] was 32.2 µM and the TGI [19] was 30.3 µM. For the same compound, the TGI [20] was 29.6 µM, the TGI [21] was 27.6 µM and the TGI [22] was 24.8 µM. For the same compound, the TGI [23] was 32.9 µM, the TGI [24] was 30.8 µM and the TGI [25] was over 100 µM. For the same compound, the TGI [26] was 4.65 µM, the TGI [27] was 48.5 µM and the TGI [28] was 35 µM. For the same compound, the TGI [29] was 30.5 µM, the TGI [30] was 35.9 µM and the TGI [31] was 33.8 µM. For the same compound, the TGI [32] was 93.3 µM, the TGI [33] was 32.7 µM and the TGI [34] was 34.8 µM. It also gave a TGI [35] of 27.5 µM, a TGI [36] of 25.8 µM and a TGI [37] of 54.2 µM. It also gave a TGI [38] of 15.5 µM, a TGI [39] of 58.4 µM and a TGI [40] of 30 µM. The TGI [41] was 20.2 µM, the TGI [42] was 36.4 µM and the TGI [43] was 35 µM. The TGI [44] was 35.3 µM, the TGI [45] was 30 µM and the TGI [46] was 27.8 µM. For the same compound, the TGI [47] was 48.3 µM, the TGI [48] was 34.8 µM and the TGI [51] was 42.9 µM. For the same compound, the TGI [52] was 34.8 µM, the TGI [53] was 32 µM and the TGI [54] was 36.1 µM. For the same compound, the TGI [55] was 30.6 µM and the TGI [56] was 33.9 µM.

From PubChem BioAssay (NCI)
